Several values for one entry are separate records, joined by “and”; a condition that tells them apart may be missing. Equal values may be shown once.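 Step 1: Grow cells in 96-well plates. Step 2: Expose to compound for 48 hours at 5 concentrations. Step 3: Interpolate endpoints linearly; if unreached, use highest concentration. Abbreviation: GI50, concentration required for 50% inhibition of growth. TGI: concentration producing complete growth inhibition.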
Assays:
Test in all cases: inhibition of tumour cell growth, NCI panel, 48 h
NCI-H460 lung = system: NCI-H460 lung
MOLT-4 leukemia = system: MOLT-4 leukemia
SF-295 CNS = system: SF-295 CNS
RXF 393 renal = system: RXF 393 renal
SK-MEL-5 melanoma = system: SK-MEL-5 melanoma
CCRF-CEM leukemia = system: CCRF-CEM leukemia
SNB-19 CNS = system: SNB-19 CNS
IGROV1 ovarian = system: IGROV1 ovarian
HOP-92 NSCLC = system: HOP-92 NSCLC
SK-MEL-28 melanoma = system: SK-MEL-28 melanoma

| Structure (SMILES) | GI50 (NCI-H460 lung) [µM] | TGI (NCI-H460 lung) [µM] | GI50 (MOLT-4 leukemia) [µM] | TGI (MOLT-4 leukemia) [µM] | GI50 (SF-295 CNS) [µM] | TGI (SF-295 CNS) [µM] | GI50 (RXF 393 renal) [µM] | TGI (RXF 393 renal) [µM] | GI50 (SK-MEL-5 melanoma) [µM] | TGI (SK-MEL-5 melanoma) | GI50 (CCRF-CEM leukemia) [µM] | TGI (CCRF-CEM leukemia) | GI50 (SNB-19 CNS) [µM] | TGI (SNB-19 CNS) [µM] | GI50 (IGROV1 ovarian) [µM] | TGI (IGROV1 ovarian) | GI50 (HOP-92 NSCLC) [µM] | TGI (HOP-92 NSCLC) [µM] | GI50 (SK-MEL-28 melanoma) [µM] | TGI (SK-MEL-28 melanoma) [µM] |
| --- | --- | --- | --- | --- | --- | --- | --- | --- | --- | --- | --- | --- | --- | --- | --- | --- | --- | --- | --- | --- |
| Cc1ccc(C(=O)/C(=C/c2ccc([N+](=O)[O-])cc2)SCc2ccc(Cl)cc2)cc1 | 2.58 | 12 | 0.471 | > 100 | 1.55 | 3.4 | 2.38 | 7.03 | 2.34 | 6.43 µM | 0.283 | > 100 µM | 1.17 | 3.02 | 2.23 | 8.6 µM | 2.86 | 55.2 | 3.36 | 14.7 |
| COc1cc(/C=N/NC(=O)c2ccc(C(F)(F)F)nc2Nc2ccc(Cl)cc2C)ccc1O | 2.65 | 11.7 | 0.554 | 2.75 | 1.16 | 3.23 | 3.2 | 14.3 | 1.41 | 3.28 µM | 0.416 | 3.12 µM | 3.73 | 14.5 | 0.838 | 7.02 µM | 1.59 | 7.58 | 2.74 | 14.3 |
| CCCCCCCCCCCCCCCCCC(CCCCCCCCCCCCCCCCC)OP(=O)(O)O | – | > 100 | – | > 100 | – | > 100 | – | > 100 | – | > 100 µM | – | > 100 µM | – | > 100 | – | > 100 µM | – | > 100 | – | > 100 |
| Cc1cc(C)nc(NS(=O)(=O)c2ccc(NC(=O)c3ccc(Cl)c4c(Nc5ccc(S(=O)(=O)Nc6nc(C)cc(C)n6)cc5)c5ccccc5nc34)cc2)n1 | – | > 100 | – | > 100 | – | > 100 | – | 4.83 | – | 73.1 µM | – | > 100 µM | – | > 100 | – | > 100 µM | – | 5.93 | – | > 100 |
| COC1=CC(c2ccc[nH]2)=N/C1=C\c1[nH]c(C)c(C(=O)OC(C)C)c1C | 0.0269 | 1.63 | 0.0346 | 3.51 | 0.0264 | 0.123 | 0.0584 | 1.03 | 0.0242 | 0.0773 µM | 0.0316 | > 100 µM | 0.866 | 34.9 | 0.0535 | 1.62 µM | 0.0239 | 0.0815 | 0.216 | 1.95 |
| Cn1cc(C2=C(c3cn(C)c4ncccc34)C(=O)NC2=O)c2ccccc21 | 9.96 | > 25 | 7.54 | > 24 | 7.18 | > 25 | 3.8 | 10.7 | 6.27 | > 17.6 µM | 8.41 | > 22.9 µM | 11.2 | > 25 | 15.5 | > 25 µM | 7.71 | > 22.9 | 8.56 | > 25 |
| O=CN/C=C/c1cc(O)ccc1O | – | > 100 | – | > 63.4 | – | > 100 | – | 26.3 | – | 39.3 µM | – | 23.9 µM | – | > 100 | – | 71.4 µM | – | 25.6 | – | > 78.5 |
| COc1cc(-c2nn(-c3ccc(NC(=O)c4ccc(Cl)c(C(F)(F)F)c4)cc3)cc2-c2ccncc2)ccc1Cl | 3.43 | > 100 | 2.63 | 8.06 | 0.255 | 0.948 | 0.461 | 1.61 | 1.66 | 3.15 µM | 2.5 | > 100 µM | 4.55 | > 100 | 3.96 | > 100 µM | 2.58 | 8.81 | 2.62 | > 61.9 |
| COc1ccccc1C12OC(=O)C1(C)Oc1ccccc1C2=O (centres undefined) | – | > 100 | – | > 100 | – | > 100 | – | > 100 | – | > 100 µM | – | > 100 µM | – | > 100 | – | > 100 µM | – | > 100 | – | > 100 |
| COc1ccc2c(c1)/C(=C/c1c(C)nc3sc(C)nn13)C(=O)N2 | 1.09 | > 32.6 | 2.64 | > 100 | 1.48 | 50.3 | 17.6 | > 100 | 1.5 | > 100 µM | 2.52 | > 100 µM | 1.94 | > 37 | 2.18 | > 100 µM | 9.86 | > 77.8 | 5.29 | > 100 |
| Cc1nc2ccccc2c(N)c1-c1cc(C)c2c(C)nc3ccccc3c2n1 | 0.329 | 1.17 | 0.54 | – | 1.34 | 2.74 | 0.182 | 0.737 | 18.2 | > 37.4 µM | 0.362 | 2.12 µM | 1.59 | 3.39 | 0.294 | 0.86 µM | 1.46 | 3.38 | 1.61 | 2.97 |
| Brc1ccc(N=c2nc3ccccn3n3nc(-c4ccccc4)cc23)cc1 | – | > 100 | – | > 100 | – | > 100 | – | 51.1 | – | > 100 µM | – | > 100 µM | – | 95.1 | – | > 100 µM | – | 87.2 | – | > 100 |
| CCC(CO)Nc1nc2ccc(Cl)cc2c2ccccc12 (centres undefined) | 3.93 | 14.8 | 3.55 | 15.2 | 2.81 | 15.3 | 2.3 | 5.93 | 11.2 | 23.3 µM | 4.24 | 17.4 µM | 8.53 | 21.3 | 11.2 | 23.5 µM | 3.06 | 14.8 | 14.3 | 27.3 |
| COC1CCC2C(NS(=O)(=O)c3ccc(C)cc3)CCCC2O1 (centres undefined) (tested in a mixture with another compound) | – | > 34.5 | – | 20.9 | – | 21.4 | – | > 34.5 | – | 19.4 µM | – | > 34.5 µM | – | > 34.5 | – | > 34.5 µM | – | 28 | – | > 34.5 |
| CSc1nc2c(c(=O)[nH]1)N=C1c3ccccc3C(=O)C1C(c1ccccc1)N2 (centres undefined) | 3.16 | 38.1 | 5.24 | > 100 | 1.91 | > 100 | 22 | > 100 | 1.5 | 67.2 µM | 6.92 | > 100 µM | > 100 | > 100 | 4.54 | > 100 µM | 12 | > 100 | 3.73 | > 100 |
| COC(=O)[C@@H]1[C@H](O)[C@H](C)[C@H](O)[C@@](C)(O)/C=C\C=C(C)C(=O)Nc2c(C)c(OC(C)=O)c3c(c2O)C(=O)C(C)=C2OCOC(=C23)C(C)=C[C@@](C)(O)[C@H](O)[C@@H](C)[C@H]1OC(C)=O | > 66.9 | > 100 | – | > 100 | > 66.9 | > 100 | – | > 100 | 20.5 | > 100 µM and 66.9 µM and 38.4 µM | 12.8 | > 100 µM and 66.9 µM and 47.6 µM | > 66.9 | > 100 | – | > 100 µM and 66.9 µM | – | > 100 | – | > 100 |
| CC(C)=CC(=O)C1c2cccc(O)c2C(=O)c2c(O)cc(C)cc21 (centres undefined) | – | 10.1 | – | 20.7 | – | 3.39 | – | 4.39 | – | 4.06 µM | – | > 100 µM | – | 16.3 | – | 4.76 µM | – | 7.83 | – | 9.04 |
| CC/C=C\CCC/C=C1/C(=O)C=C[C@@H]1C/C=C\CCCC(=O)OC | 3.9 | 14.2 | 2.43 | 8.39 | 3.1 | 8.75 | 2.6 | 6.02 | 1.88 | 3.5 µM | 2.57 | 8.32 µM | 4.84 | 17.7 | 3.3 | 11.5 µM | 9.77 | 23.6 | 3.25 | 10.3 |
| O=C(CC1(O)C(=O)Nc2c(Cl)cc(Cl)cc21)c1ccc(Br)cc1Br (centres undefined) | – | 28.9 | – | 17.3 | – | 34.9 | – | 26.2 | – | 14.6 µM | – | 3.21 µM | – | 41 | – | 34.7 µM | – | 9.75 | – | 27.7 |
| CC(C)C/C(CC(=O)CCC(=O)Nc1ccccc1[N+](=O)[O-])=N\NC(=O)c1cc2ccccc2cc1O | – | > 100 | – | > 100 | – | 99.8 | – | > 100 | – | 67.5 µM | – | 59.6 µM | – | > 100 | – | > 100 µM | – | > 100 | – | > 100 |
| CC1=C(C(=O)NCc2ccccc2)C(/C=C/c2ccccc2)C(C(=O)NCc2ccccc2)=C(C)N1 | – | > 100 | – | > 100 | – | > 100 | – | > 100 | – | > 100 µM | – | > 100 µM | – | > 100 | – | > 100 µM | – | > 100 | – | > 100 |

Source: PubChem BioAssay (NCI)
